Assay [1] concerns the target T1, DNA topoisomerase 1 (Homo sapiens) (UniProt P11387).
T1 sequence (whole entry): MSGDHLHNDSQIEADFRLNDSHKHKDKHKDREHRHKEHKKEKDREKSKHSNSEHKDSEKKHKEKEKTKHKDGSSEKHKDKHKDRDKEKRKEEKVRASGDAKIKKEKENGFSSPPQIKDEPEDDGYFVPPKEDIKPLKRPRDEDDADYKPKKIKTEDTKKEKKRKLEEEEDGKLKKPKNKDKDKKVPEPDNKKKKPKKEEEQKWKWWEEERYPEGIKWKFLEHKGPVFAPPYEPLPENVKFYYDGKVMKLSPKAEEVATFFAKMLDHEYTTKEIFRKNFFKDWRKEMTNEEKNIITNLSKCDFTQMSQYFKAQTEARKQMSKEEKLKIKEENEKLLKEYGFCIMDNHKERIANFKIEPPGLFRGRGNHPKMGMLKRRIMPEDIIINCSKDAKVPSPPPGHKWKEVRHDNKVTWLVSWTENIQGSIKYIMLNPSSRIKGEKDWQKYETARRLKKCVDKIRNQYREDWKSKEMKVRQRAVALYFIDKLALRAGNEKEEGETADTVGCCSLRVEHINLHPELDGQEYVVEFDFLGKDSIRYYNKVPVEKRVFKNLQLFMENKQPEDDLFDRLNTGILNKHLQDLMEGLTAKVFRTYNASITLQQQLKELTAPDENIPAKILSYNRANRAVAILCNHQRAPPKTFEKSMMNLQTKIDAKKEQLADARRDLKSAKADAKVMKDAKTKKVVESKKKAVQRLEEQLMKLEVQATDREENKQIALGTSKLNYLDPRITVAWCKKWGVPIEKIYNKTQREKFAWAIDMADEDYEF
Briefly: Inhibition of DNA topoisomerase 1.

In assay [2] the test system is L1210. Briefly: Cytotoxicity against mouse L1210 cells at 10 ug/ml. The class given is functional.
The test system of assay [3] is KB. Kind of assay: Cytotoxicity against human KB cells at 10 ug/ml. The class given is functional.
The subject of assay [4] is L1210. Kind of assay: Cytotoxicity against mouse L1210 cells. Format: functional, cell-based.
For assay [5], the system named is KB. Briefly: Cytotoxicity against human KB cells. Format: functional, cell-based.

By IC50 is commonly meant the concentration at which inhibition is half-maximal. The low end stands for higher potency, the high end for lower potency.

≈ marks a conversion by molar mass, not a printed value.

Molecule `C[C@@]12CC[C@H](O)[C@@H]3COC(=C31)C(=O)c1cc3c(cc12)C(=O)CCC3O` (some centres not stated) registered an MIC in assay [1] of 2.5 µg/mL (≈ 7.34 µM). The Activity in the assay with L1210 [2] worked out at 14.5%; in the assay on KB [3], 9.8%.
In the same order, the values of `C[C@@]12CCC(=O)c3coc(c31)C(=O)c1cc3c(O)ccc(OS(=O)(=O)[O-])c3cc12.[Na+]` [HALENAQUINOL SULFATE SODIUM] are greater than 50 µg/mL, 22.4% and 12.2%.
In the case of `C[C@@]12CCC(=O)c3coc(c31)C(=O)c1cc3c(cc12)C(=O)C=CC3=O` [HELENAQUINONE], in assay [1], the MIC was found to be 0.4 µg/mL (≈ 1.2 µM). The IC50 in the assay on L1210 [4] worked out at 1.6 µg/mL (≈ 4.81 µM); with KB [5], 3.1 µg/mL (≈ 9.33 µM).
On to `C[C@@]12CCCc3coc(c31)C(=O)c1cc3c(O)ccc(OS(=O)(=O)[O-])c3cc12.[Na+]` [XESTOQUINOL SULFATE SODIUM], for which the MIC in assay [1] was 10 µg/mL. The molecule also had an Activity in the assay with L1210 [2] of 25.4%.
With `C[C@@]12CCCc3coc(c31)C(=O)c1cc3c(cc12)C(=O)C=CC3=O` [XESTOQUINONE], in assay [1], the MIC was found to be 2 µg/mL (≈ 6.28 µM). Besides, the IC50 came out at 0.17 µg/mL (≈ 0.534 µM) in the assay with L1210 [4] and 1.7 µg/mL (≈ 5.34 µM) in the assay on KB [5].
In assay [1], `C[C@@]12CC[C@H](O)[C@@H]3COC(=C31)C(=O)c1cc3c(cc12)C(O)CCC3=O` (some centres not stated) [XESTOSAPROL A] showed an MIC of 12.5 µg/mL (≈ 36.7 µM). Moreover, the Activity stood at 34.9% with L1210 [2] and 30.1% with KB [3].
